In patent publication US9393250B2, “Phthalocyanine compounds useful as RecA inhibitors and methods of using same” (University of Saskatchewan, priority 2012, dated 2016):

Assays:
E. coli ATCC25922 = assay: Filamentation assay; format: cell-based, Escherichia coli; conditions: 4,4-Fe-PcTs 25 μM; CFX 40 nM; three hours
Description: Overnight cultures of E. coli ATCC25922 were grown in LB at 37° C. […] The cells were stained using the standard Gram staining technique and imaged using light microscopy at 100× magnification.

[1] = system: Enterococcus faecalis ATCC29212; assay: Antibiotic sensitivity assay (CFUs/ml), E. faecalis; format: cell-based; conditions: compound 25 μM; ciprofloxacin 6.5 μM
Description: Bacterial cultures were diluted to 10^5 cells/mL in LB broth (ATCC25922) or MH broth (ATCC27853, ATCC29212, ATCC29213). Antibiotics and/or phthalocyanines were added at indicated concentrations and the culture was incubated at 37° C. Samples were collected at 0, 24, 48, and 72 hours and plated on LB agar (ATCC25922) or tryptic soy blood agar (ATCC27853, ATCC29212, ATCC29213) to determine CFUs/ml.
To confirm that the activity of 4,4-Fe-PcTs was not specific to the gram-negative ATCC25922 E. coli, the ability of 4,4-Fe-PcTs to potentiate the activity of ciprofloxacin in another gram-negative (Pseudomonas aeruginosa ATCC27853) strain and two gram-positive (Staphylococcus aureus ATCC29213 and Enterococcus faecalis ATCC29212) strains was evaluated.

EcRecA [2] = molecular target: T1, EcRecA (Escherichia coli, UniProt P0A7G6); conditions: in presence of ATPγS
T1 sequence (P0A7G6 whole entry): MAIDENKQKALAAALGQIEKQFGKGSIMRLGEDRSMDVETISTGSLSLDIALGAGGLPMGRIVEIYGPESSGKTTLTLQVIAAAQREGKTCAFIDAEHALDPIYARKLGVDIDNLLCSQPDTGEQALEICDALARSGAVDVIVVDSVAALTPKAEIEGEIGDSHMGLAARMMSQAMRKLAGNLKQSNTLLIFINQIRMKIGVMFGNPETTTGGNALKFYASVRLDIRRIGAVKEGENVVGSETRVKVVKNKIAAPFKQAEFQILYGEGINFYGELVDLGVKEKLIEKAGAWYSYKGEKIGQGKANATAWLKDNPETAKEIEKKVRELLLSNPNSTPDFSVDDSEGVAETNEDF
Description: EcRecA (5 μM) was incubated with indicated concentrations of 4,4-Fe-PcTs or 3,4-Cu-PcTs in strand exchange buffer (2 mM ATP-γ-S(Sigma-Aldrich), 10 mM MgAc2, 100 mM KAc, 50 mM Hepes-Tris buffer at pH 7.6, 0.1% v/v 2-mercaptoethanol) for 10 minutes at 37° C. FAM43 (0.35 μM) was added and the reaction was incubated for 2 minutes. The reaction was started by the addition of 0.35 μM of the dsDNA substrate (annealing product of equimolar oligonucleotides 45A and 55A). The reaction was stopped at 30 minutes by adding EDTA to a final concentration of 20 mM and trypsin to a final concentration of 1 μg/μl. After 10 minutes, 10 μl of the reaction was mixed with 5 μl of loading buffer (30% glycerol and 0.1% bromophenol blue) and products were resolved using a 20% native acrylamide gel. The fluorescence emission in the gel was recorded using a Kodak GelLogic 200 system.

[3] = system: SOS response (E. coli strain SS996); assay: SOS induction, GFP regulated by the sulA SOS promoter, flow cytometry; format: cell-based, Escherichia coli; conditions: 4,4-Fe-PcTs 25 μM, three hours
Description: To confirm that the bactericidal antibiotic potentiating activity of 4,4-Fe-PcTs was correlated with reduced SOS induction, SOS induction in the E. coli strain SS996 was monitored. This strain contains a green fluorescent protein (GFP) regulated by the sulA SOS promoter.
SS996 cultures were grown to an optical density at 600 nm (OD600) of 0.3. For cultures treated with 4,4-Fe-PcTs, the 4,4-Fe-PcTs was added to give a concentration of 25 μM and the culture was incubated for three hours at 37° C. Antibiotics were then added to yield concentrations of 2.5 μM (CFX), 40 μM (AMP), 43 μM (KAN), 21 μM (TET), 46 μM (CAM), or 808 μM (SPECT). Samples (˜10^6 cells) were taken immediately before the addition of antibiotics (time zero) and every hour for three hours. Samples were washed once in PBS, and resuspended in PBS prior to analysis by flow cytometry. GFP expression was monitored using flow cytometer (Beckman Coulter, Inc.) with a 488 nm argon laser and a 515-545 nm emission. Flow cytometry data were analyzed using Flowjo (Tree Star, Inc.).

EcRecA / EcLexA = EcRecA / EcLexA (Escherichia coli, UniProt P0A7G6); conditions: in presence of ATPγS
Sequence of EcRecA / EcLexA (P0A7G6 whole entry): as above
Description: The LexA cleavage reaction (10 μl) contained 1 μM poly-(dT)45, 2 μM EcRecA, 10 μM EcLexA, 0.1 mM ATP-γ-S, 20 mM MgAc2, 50 mM Hepes-Tris at pH 7.6 and indicated concentrations of 4,4-Fe-PcTs or 3,4-Cu-PcTs. The reaction was incubated for 120 minutes at 21° C. and stopped by the addition of 5 μl of loading buffer (30% glycerol, 10% SDS, 0.2 M Tris-HCl at pH 6.8, 0.1% v/v 2-mercaptoethanol and 0.1% w/v bromophenol blue). The products were resolved using a 13% SDS-polyacrylamide gel. The proteins were stained with Coomassie Blue-R250.

EcRecA [4] = molecular target: T1, EcRecA; conditions: gel shift; 0, 10, 100 μM
Description: EcRecA (4 μM), a 1.0-kb double-stranded DNA (dsDNA) PCR product (12 μM in base pairs), and indicated concentrations of 4,4-Fe-PcTs or 3,4-Cu-PcTs were incubated in binding buffer (5 mM MgAc2, 50 mM Tris-Hepes at pH 7.6) for 10 minutes at 37° C. EcRecA bound (slower migrating) and unbound dsDNA were resolved using a 1.0% agarose gel. The gel was stained with ethidium bromide and the fluorescence emission in the gel was recorded using a Kodak GelLogic 200 system.

mouse bone marrow cells = assay: Viability of mouse bone marrow cells; format: cell-based; conditions: maximum concentration tested (100 μM); 24 and 48 hours
Description: Error bars represent the standard deviation from three independent experiments.

ATCC25922 cells = assay: Hydroxyl radical production (HPF, flow cytometry); format: cell-based, Escherichia coli; conditions: 4,4-Fe-PcTs 25 μM; ciprofloxacin 40 nM; three hours
Description: To confirm that 4,4-Fe-PcTs inhibited the SOS response by a mechanism independent of blocking hydroxyl radical production, the ability of 4,4-Fe-PcTs to decrease hydroxyl radical levels in the presence of bactericidal antibiotics was assayed. Hydroxyphenyl fluorescein was used to measure hydroxyl radical formation in bacteria. Hydroxyl radical production was measured using flow cytometry with […] fluorescein (HPF, Invitrogen) as described previously. ATCC25922 cells were grown to OD600 of 0.3. For cultures treated with 4,4-Fe-PcTs, the 4,4-Fe-PcTs was added to give a concentration of 25 μM and the culture was incubated for three hours at 37° C. […] Samples (˜10^6 cells) were taken immediately before the addition of antibiotics (time zero) and every hour for three hours. The samples were washed once in PBS, and resuspended in PBS prior to analysis by flow cytometry. Hydroxyl radical production was monitored using a flow cytometer (Beckman Coulter, Inc.) with a 488 nm argon laser and a 515-545 nm emission. Flow cytometry data were analyzed using Flowjo (Tree Star, Inc.).

EcRecA [5] = molecular target: T1, EcRecA; conditions: gel shift; 0, 10, 100 μM; remark: listed apart in the source

iron (III) phthalocyanine-4,4′,4″,4′″-tetrasulfonic acid [4,4-Fe-PcTs]
effect on ciprofloxacin-induced in vitro filamentation (E. coli ATCC25922): reduced the ability of ciprofloxacin to induce
potentiation of ciprofloxacin activity [1]: potentiated the activity of ciprofloxacin
inhibition of DNA strand-exchange (EcRecA [2]): inhibited
effect on ampicillin-induced SOS response (GFP) ([3]; AMP 40 μM): reduced the ability
effect on ciprofloxacin-induced SOS response (GFP) ([3]; CFX 2.5 μM): reduced the ability
inhibition of LexA cleavage (EcRecA / EcLexA): inhibited
inhibition of RecA dsDNA-binding activity (EcRecA [4]): in the micromolar range
toxicity to mouse bone marrow (mouse bone marrow cells): not toxic
effect on ciprofloxacin-induced hydroxyl radicals (ATCC25922 cells): did not alter
inhibition of RecA ssDNA-binding activity (EcRecA [5]): in the micromolar range
